This note sets out measurements from ChEMBL document CHEMBL1150696, “Griffonianone D, an isoflavone with anti-inflammatory activity from the root bark of Millettia griffoniana” (2003).

The test system of assay [1] is Mus musculus. The experiment in a line: Antiinflammatory activity against PLA2-induced Swiss mouse paw edema at 5 mg/kg, ip administered 30 mins before PLA2 challenge. The format is functional. As to conditions: route intraperitoneal.
The test system of assay [2] is Mus musculus. Nature of the assay: Antiinflammatory activity against PLA2-induced Swiss mouse paw edema at 5 mg/kg, ip administered 30 mins before PLA2 challenge.
Assay [3] concerns Mus musculus. Nature of the assay: Antiinflammatory activity against PLA2-induced Swiss mouse paw edema at 5 mg/kg, ip administered 60 mins before PLA2 challenge. The format is functional. As to conditions: route intraperitoneal.
The subject of assay [4] is Mus musculus. Nature of the assay: Antiinflammatory activity against TPA-induced Swiss mouse ear edema assessed as reduction in ear swelling at 0.25 mg/ear topically after 4 hrs relative to control. The format is functional.
Assay [5] concerns the target T1, Polyunsaturated fatty acid 5-lipoxygenase (Rattus norvegicus) (UniProt P12527).
T1 sequence (whole entry): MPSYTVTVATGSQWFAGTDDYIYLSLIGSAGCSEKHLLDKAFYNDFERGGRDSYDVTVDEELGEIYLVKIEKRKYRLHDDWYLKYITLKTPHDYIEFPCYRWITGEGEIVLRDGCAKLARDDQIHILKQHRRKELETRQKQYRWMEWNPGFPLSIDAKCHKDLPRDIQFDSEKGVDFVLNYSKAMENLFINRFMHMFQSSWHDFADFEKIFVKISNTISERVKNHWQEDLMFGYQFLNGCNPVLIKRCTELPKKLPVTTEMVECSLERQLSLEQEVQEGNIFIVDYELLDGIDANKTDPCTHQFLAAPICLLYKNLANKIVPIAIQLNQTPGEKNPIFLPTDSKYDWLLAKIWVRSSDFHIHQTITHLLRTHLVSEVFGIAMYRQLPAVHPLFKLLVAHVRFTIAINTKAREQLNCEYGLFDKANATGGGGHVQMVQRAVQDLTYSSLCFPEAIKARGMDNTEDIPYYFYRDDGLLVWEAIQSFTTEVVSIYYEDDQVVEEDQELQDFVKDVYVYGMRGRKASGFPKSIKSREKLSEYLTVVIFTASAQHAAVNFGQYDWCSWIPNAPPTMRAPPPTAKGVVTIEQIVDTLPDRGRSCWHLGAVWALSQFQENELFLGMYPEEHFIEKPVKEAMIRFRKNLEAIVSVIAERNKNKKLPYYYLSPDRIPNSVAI
Nature of the assay: Inhibition of 5-lipoxygenase in rat leukocytes assessed as inhibition of calcium ionophore A-23187/calcium-stimulated LTB4 production. The format is cell-based.

The target of assay [6] is Prostaglandin G/H synthase 1 (Homo sapiens) (UniProt P23219). Nature of the assay: Inhibition of cyclooxygenase 1 in human platelet assessed as 12-hydroxyheptadecatrienoic acid production.
Assay [7] relates to Mus musculus. The experiment in a line: Antiinflammatory activity against carrageenan-induced Swiss mouse paw edema at 10 mg/kg, po. The format is functional. On the technique in general: Carrageenan injected into the paw causes an acute inflammation.
In assay [8] the test system is Mus musculus. The experiment in a line: Antiinflammatory activity against TPA-induced Swiss mouse ear edema assessed as reduction in ear swelling at 0.5 mg/ear topically after 4 hrs relative to control. The format is functional.

Each structure is given as a SMILES string. Activity calls are given as the source filed them. The rule behind the calls is not given here.

Chain of Prostaglandin G/H synthase 1 (Homo sapiens) (P23219 whole entry): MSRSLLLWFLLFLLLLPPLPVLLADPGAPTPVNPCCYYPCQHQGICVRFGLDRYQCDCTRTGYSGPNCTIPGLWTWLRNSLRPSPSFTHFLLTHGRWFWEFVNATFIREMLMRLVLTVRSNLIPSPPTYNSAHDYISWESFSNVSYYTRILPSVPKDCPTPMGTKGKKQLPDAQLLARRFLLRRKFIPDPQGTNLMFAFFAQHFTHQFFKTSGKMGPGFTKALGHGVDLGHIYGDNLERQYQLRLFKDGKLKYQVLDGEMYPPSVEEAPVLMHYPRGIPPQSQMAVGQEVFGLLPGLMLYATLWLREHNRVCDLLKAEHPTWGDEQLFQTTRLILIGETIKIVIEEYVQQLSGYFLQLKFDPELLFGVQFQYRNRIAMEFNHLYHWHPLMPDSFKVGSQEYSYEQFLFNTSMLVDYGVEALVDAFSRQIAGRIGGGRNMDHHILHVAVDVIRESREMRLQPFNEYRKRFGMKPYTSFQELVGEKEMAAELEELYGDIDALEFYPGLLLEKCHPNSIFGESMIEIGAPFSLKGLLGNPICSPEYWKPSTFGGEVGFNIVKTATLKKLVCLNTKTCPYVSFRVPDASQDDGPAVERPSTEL

The inhibition in vivo is the relative decrease from the control value, in per cent. The low end stands for a weak effect, the high end for a strong effect. In the case of `CN1CCC(=C2c3ccccc3C=Cc3ccccc32)CC1` [CYPROHEPTADINE], the inhibition in vivo at 5 mg/kg with Mus musculus [1] and in the assay on Mus musculus [2] was 82% each time.

On to `COc1ccc(-c2coc3cc(OC/C=C(\C)CCC(O)C(C)(C)O)ccc3c2=O)cc1` (centres undefined) [GRIFFONIANONE D], for which the results for the inhibition in vivo at 5 mg/kg in the assay on Mus musculus [3] and in the assay on Mus musculus [1] were 30% and 42%, respectively. For the same molecule, in the assay on Mus musculus [4], the “inhibition (INH)” value was determined as 77%. Besides, the outcome in assay [5] and in assay [6] was inactive.

Turning to `COc1ccc2c(c1)c(CC(=O)O)c(C)n2C(=O)c1ccc(Cl)cc1` [INDOMETHACIN], in the assay on Mus musculus [7], the inhibition in vivo at 10 mg/kg stood at 60%. In the assay with Mus musculus [8], the “inhibition (INH)” value worked out at 82%.
